Reference: US20070021434A1, “NON-NUCLEOSIDE ANTI-HEPACIVIRUS AGENTS AND USES THEREOF” (Migenix Inc., priority 2005, published 2007)

Target: HCV RdRp (NS5B) (UniProt P26663)
Format: biochemical, hepatitis C virus

HCV RdRp (NS5B), sequence (P26663 whole entry, looked up): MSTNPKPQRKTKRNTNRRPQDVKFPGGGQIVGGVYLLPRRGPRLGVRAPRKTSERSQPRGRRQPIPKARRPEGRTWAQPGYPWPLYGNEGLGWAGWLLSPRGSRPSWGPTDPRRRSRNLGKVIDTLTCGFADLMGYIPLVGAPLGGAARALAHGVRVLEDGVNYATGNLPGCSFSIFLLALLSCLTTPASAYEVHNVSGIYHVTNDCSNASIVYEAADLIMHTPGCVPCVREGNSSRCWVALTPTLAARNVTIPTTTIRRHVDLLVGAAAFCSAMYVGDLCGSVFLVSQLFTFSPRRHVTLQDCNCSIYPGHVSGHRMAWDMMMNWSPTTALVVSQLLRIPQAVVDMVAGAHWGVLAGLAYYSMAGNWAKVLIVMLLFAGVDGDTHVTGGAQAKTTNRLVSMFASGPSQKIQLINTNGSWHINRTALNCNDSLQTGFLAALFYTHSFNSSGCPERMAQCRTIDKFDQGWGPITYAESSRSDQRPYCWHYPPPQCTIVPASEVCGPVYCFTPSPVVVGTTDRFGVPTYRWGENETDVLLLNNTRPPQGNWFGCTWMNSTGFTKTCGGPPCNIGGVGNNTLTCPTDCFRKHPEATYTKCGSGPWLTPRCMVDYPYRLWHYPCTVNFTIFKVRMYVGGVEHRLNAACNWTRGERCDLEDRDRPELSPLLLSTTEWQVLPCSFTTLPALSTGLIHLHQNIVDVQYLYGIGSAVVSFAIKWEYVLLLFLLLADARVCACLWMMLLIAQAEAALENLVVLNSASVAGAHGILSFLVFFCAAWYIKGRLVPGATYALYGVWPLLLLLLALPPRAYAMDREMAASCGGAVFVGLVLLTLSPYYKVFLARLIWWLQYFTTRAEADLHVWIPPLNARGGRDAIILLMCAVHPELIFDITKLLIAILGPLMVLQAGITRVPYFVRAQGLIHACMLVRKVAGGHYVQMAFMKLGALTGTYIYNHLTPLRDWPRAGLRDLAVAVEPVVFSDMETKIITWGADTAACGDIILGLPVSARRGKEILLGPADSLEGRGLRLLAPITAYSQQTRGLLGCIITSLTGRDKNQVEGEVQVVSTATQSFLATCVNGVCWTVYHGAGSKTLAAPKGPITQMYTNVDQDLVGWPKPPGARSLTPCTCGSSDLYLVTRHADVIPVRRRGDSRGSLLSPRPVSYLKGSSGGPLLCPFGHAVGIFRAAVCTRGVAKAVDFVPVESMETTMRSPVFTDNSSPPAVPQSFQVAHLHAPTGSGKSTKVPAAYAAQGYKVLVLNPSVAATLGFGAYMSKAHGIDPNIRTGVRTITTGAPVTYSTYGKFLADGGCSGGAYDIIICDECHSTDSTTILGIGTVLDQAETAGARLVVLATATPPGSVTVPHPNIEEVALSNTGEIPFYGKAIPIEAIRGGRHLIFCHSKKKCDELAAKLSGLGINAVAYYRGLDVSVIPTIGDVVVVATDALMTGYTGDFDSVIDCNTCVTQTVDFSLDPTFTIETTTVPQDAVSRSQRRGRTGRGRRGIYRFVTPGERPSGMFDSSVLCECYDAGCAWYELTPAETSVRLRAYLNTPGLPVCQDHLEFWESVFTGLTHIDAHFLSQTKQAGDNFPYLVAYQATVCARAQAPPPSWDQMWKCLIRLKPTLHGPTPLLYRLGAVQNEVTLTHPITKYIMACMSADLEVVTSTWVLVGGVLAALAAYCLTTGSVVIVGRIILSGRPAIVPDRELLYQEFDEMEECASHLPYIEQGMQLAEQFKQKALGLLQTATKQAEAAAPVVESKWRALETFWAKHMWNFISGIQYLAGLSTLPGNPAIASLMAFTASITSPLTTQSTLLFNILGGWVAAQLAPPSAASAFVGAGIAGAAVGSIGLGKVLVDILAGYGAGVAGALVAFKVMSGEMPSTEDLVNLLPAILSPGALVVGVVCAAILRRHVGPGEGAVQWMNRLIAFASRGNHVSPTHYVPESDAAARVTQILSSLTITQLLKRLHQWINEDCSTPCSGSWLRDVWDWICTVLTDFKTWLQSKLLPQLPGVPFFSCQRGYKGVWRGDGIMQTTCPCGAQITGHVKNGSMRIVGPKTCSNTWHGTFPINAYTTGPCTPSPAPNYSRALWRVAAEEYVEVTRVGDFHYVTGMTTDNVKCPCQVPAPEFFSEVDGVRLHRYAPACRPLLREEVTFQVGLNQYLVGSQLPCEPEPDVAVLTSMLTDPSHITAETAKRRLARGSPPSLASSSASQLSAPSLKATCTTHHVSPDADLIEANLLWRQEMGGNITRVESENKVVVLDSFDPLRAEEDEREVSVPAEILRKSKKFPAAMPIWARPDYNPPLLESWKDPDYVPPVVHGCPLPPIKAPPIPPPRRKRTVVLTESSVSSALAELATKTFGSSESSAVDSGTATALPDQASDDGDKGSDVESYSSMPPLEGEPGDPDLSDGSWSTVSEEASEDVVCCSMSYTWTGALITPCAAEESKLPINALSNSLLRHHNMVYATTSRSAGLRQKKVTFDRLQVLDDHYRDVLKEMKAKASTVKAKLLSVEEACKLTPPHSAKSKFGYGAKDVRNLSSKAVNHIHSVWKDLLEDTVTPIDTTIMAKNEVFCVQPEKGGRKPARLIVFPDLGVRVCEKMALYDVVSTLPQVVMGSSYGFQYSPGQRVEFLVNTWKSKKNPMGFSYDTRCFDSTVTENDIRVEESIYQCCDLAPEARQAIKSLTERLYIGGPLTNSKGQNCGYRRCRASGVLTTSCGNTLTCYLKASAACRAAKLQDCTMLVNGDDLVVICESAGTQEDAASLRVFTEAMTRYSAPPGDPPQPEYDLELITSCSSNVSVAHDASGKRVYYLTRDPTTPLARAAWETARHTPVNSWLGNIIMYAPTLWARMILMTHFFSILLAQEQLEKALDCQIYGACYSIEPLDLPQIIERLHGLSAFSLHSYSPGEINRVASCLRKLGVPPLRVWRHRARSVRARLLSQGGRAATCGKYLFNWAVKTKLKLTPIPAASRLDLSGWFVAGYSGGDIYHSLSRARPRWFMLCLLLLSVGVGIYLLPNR

Row | SMILES | IC50 [µM]
1 | Cc1cc2cc(NC(=O)[C@H](CCCNC(=O)CN)NC(=O)OCC3c4ccccc4-c4ccccc43)ccc2[nH]1 [Compound 238, (S)-[4-(2-AMINO-ACETYLAMINO)-1-(2-METHYL-1H-INDOL-5-YLCARBAMOYL)-BUTYL]-CARBAMIC ACID 9H-FLUOREN-9-YLMETHYL ESTER] | < 10
2 | Cc1ccc(NC(=O)C(CC(=O)O)NC(=O)OCC2c3ccccc3-c3ccccc32)cc1 [Compound 370, (S)-3-(9H-FLUOREN-9-YLMETHOXYCARBONYLAMINO)-NR-P-TOLYL-[…]] | > 50
3 | Cc1ccc(NC(=O)C(CCCCN)NC(=O)CN(c2ccccc2)C2CCCCC2)cc1 [Compound 354, (S)-6-AMINO-2-[2-(CYCLOHEXYL-PHENYL-AMINO)-ACETYLAMINO]-HEXANOIC ACID P-TOLYLAMIDE] | > 50
4 | Cc1ccc(NC(=O)[C@H](CCCCN)NC(=O)Nc2ccc(NCc3ccccc3)cc2)cc1 [Compound 224, (S)-6-AMINO-2-[3-(4-BENZYLAMINO-PHENYL)-UREIDO]-HEXANOIC ACID P-TOLYLAMIDE] | 10 to 50
5 | Cc1ccc(NC(=O)C(CCCCN)NC(=O)Nc2ccccc2-c2ccccc2)cc1 [Compound 73, (S)-6-AMINO-2-(3-BIPHENYL-2-YL-UREIDO)-HEXANOIC ACID P-TOLYLAMIDE] | > 50
6 | Cc1ccc(NC(=O)[C@H](CCCCN)NC(=O)Nc2cccc(Oc3ccccc3)c2)cc1 [Compound 98, (S)-6-AMINO-2-[3-(3-PHENOXY-PHENYL)-UREIDO]-HEXANOIC ACID P-TOLYLAMIDE] | > 50
7 | Cc1ccc(NC(=O)C(CCCCN)NC(=O)C(N)Cc2cccc3ccccc23)cc1 [Compound 61, (S,R)-6-AMINO-2-(2-AMINO-3-NAPHTHALEN-1-YL-PROPIONYLAMINO)-HEXANOIC ACID P-TOLYLAMIDE] | > 50
8 | CC(C)(C)OC(=O)NCCCC[C@H](NC(=O)OCC1c2ccccc2-c2ccccc21)C(=O)NCCc1c[nH]c2ccccc12 [Compound 56, (S)-{5-((9H-FLUOREN-9-YLMETHOXYCARBONYL)AMINO)-5-[2-(1H-INDOL-3-YL)-ETHYLCARBAMOYL]-PENTYL}-CARBAMIC ACID TERT-BUTYL ESTER] | > 50
9 | Cc1ccc(NC(=O)C(CNC(=O)CCN)NC(=O)OCC2c3ccccc3-c3ccccc32)cc1 [Compound 178, (S)-[2-(3-AMINO-PROPIONYLAMINO)-1-P-TOLYLCARBAMOYL-ETHYL]-CARBAMIC ACID 9H-FLUOREN-9-YLMETHYL ESTER] | 10 to 50
10 | CC(C)NC(=O)[C@H](CCCCN)NC(=O)Nc1ccc(OCc2ccccc2)cc1 [Compound 291, (S)-6-AMINO-2-[3-(4-BENZYLOXY-PHENYL)-UREIDO]-HEXANOIC ACID ISOPROPYLAMIDE] | > 50
11 | NCCCC[C@@H](NC(=O)Nc1cccc2ccccc12)C(=O)Nc1ccc(CN(C(=O)c2ccco2)C2CCCCC2)cc1 [Compound 32, (R)-FURAN-2-CARBOXYLIC ACID {4-[6-AMINO-2-(3-NAPHTHALEN-1-YL-UREIDO)-HEXANOYLAMINO]-BENZYL}-CYCLOHEXYL-AMIDE] | > 50
12 | NCCCCN(CC(=O)Nc1cccc2[nH]ccc12)C(=O)Nc1ccc(OCc2ccccc2)cc1 [Compound 281, 2-[1-(4-AMINO-BUTYL)-3-(4-BENZYLOXY-PHENYL)-UREIDO]-NR-(1H-INDOL-4-YL)-ACETAMIDE] | > 50
13 | Cc1ccc(NC(=O)C(CCCCN)NC(=O)Cc2ccc(-c3ccccc3)cc2)cc1 [Compound 50, (S)-6-AMINO-2-(2-BIPHENYL-4-YL-ACETYLAMINO)-HEXANOIC ACID P-TOLYLAMIDE] | > 50
14 | Cc1ccc(NC(=O)[C@H](CCCCN)NC(=O)Nc2ccc(OCc3cccc(F)c3F)cc2)cc1 [Compound 284, (S)-6-AMINO-2-{3-[4-(2,3-DIFLUORO-BENZYLOXY)-PHENYL]-UREIDO}-HEXANOIC ACID P-TOLYLAMIDE] | 10 to 50
15 | Cc1ccc(NC(=O)[C@H](CCCCN)NC(=O)Nc2ccc(OCc3ccc(F)cc3F)cc2)cc1 [Compound 285, (S)-6-AMINO-2-{3-[4-(2,4-DIFLUORO-BENZYLOXY)-PHENYL]-UREIDO}-HEXANOIC ACID P-TOLYLAMIDE] | 10 to 50
16 | Cc1ccc(NC(=O)[C@H](CCCCN)NS(=O)(=O)c2ccc(Cl)c(Cl)c2)cc1 [Compound 392, (S)-6-AMINO-2-(3,4-DICHLORO-BENZENESULFONYLAMINO)-HEXANOIC ACID P-TOLYLAMIDIE] | > 50
17 | Cc1ccc(NC(=O)[C@H](CCCCN)NS(=O)(=O)c2cc(Cl)sc2Cl)cc1 [Compound 395, (S)-6-AMINO-2-(2,5-DICHLORO-THIOPHENE-3-SULFONYLAMINO)-HEXANOIC ACID P-TOLYLAMIDE] | > 50
18 | Cc1ccc(NC(=O)C(CNC(=O)CNC(=O)CN)NC(=O)OCC2c3ccccc3-c3ccccc32)cc1 [Compound 222, (S)-{2-[2-(2-AMINO-ACETYLAMINO)-ACETYLAMINO]-1-P-TOLYLCARBAMOYL-ETHYL}-CARBAMIC ACID 9H-FLUOREN-9-YLMETHYL ESTER] | 10 to 50
19 | Cc1ccc(NC(=O)[C@H](CCCCN)NC(=O)COc2ccc(F)cc2)cc1 [Compound 329, (S)-6-AMINO-2-[^2-(^4-FLUORO-PHENOXY)-ACETYLAMINO]-HEXANOIC ACID P-TOLYLAMIDE] | > 50

Row | SMILES | IC50 [µM]
20 | Cc1ccc(NC(=O)[C@H](CCCCO)NC(=O)Nc2ccc(OCc3ccccc3)cc2)cc1 [Compound 309, (S)-2-[3-(4-BENZYLOXY-PHENYL)-UREIDO]-6-HYDROXY-HEXANOIC ACID P-TOLYLAMIDE] | > 50
21 | NCCC[C@@H](NC(=O)Nc1ccc(OCc2ccccc2)cc1)C(=O)Nc1ccc(C2CCCCC2)cc1 [Compound 202, (R)-5-AMINO-2-[3-(4-BENZYLOXY-PHENYL)-UREIDO]-PENTANOIC ACID (4-CYCLOHEXYL-PHENYL)-AMIDE] | < 10
22 | Cc1ccc(NC(=O)C(CCCCN)NC(=O)Nc2ccc(CCc3ccccc3)cc2)cc1 [Compound 243, (S)-6-AMINO-2-[3-(4-PHENETHYL-PHENYL)-UREIDO]-HEXANOIC ACID P-TOLYLAMIDE] | > 50
23 | Cc1ccc(NC(=O)[C@H](CCCCN)NC(=O)Nc2ccc(OCc3c(F)cccc3F)cc2)cc1 [Compound 287, (S)-6-AMINO-2-{3-[4-(2,6-DIFLUORO-BENZYLOXY)-PHENYL]-UREIDO}-HEXANOIC ACID P-TOLYLAMIDE] | 10 to 50
24 | COc1ccc(CNCC(=O)N[C@@H](CCCCN)C(=O)Nc2ccc(C)cc2)cc1 [Compound 343, (S)-6-AMINO-2-[2-(4-METHOXY-BENZYLAMINO)-ACETYLAMINO]-HEXANOIC ACID P-TOLYLAMIDE] | > 50
25 | COc1ccc(C=Cc2ccc(NC(=O)N[C@@H](CCCCN)C(=O)Nc3ccc(C)cc3)cc2)cc1 [Compound 252, (S)-6-AMINO-2-(3-{4-[2-(4-METHOXY-PHENYL)-VINYL]-PHENYL}-UREIDO)-HEXANOIC ACID P-TOLYLAMIDE] | < 10
26 | Cc1ccc(NC(=O)C2CC(OC(=O)CN)CN2C(=O)OCC2c3ccccc3-c3ccccc32)cc1 [Compound 131, (S)-[4-(R)-(2-AMINO-ACETOXY)-2-P-TOLYLCARBAMOYL-PYRROLIDINE-1-CARBOXYLIC ACID 9H-FLUOREN-9-YLMETHYL ESTER]] | > 50
27 | Cc1ccc(CNCC(=O)NC(CCCCN)C(=O)Nc2ccc(C)cc2)cc1 [Compound 340, (S)-6-AMINO-2-[2-(4-METHYL-BENZYLAMINO)-ACETYLAMINO]-HEXANOIC ACID P-TOLYLAMIDE] | > 50
28 | C[C@@H](N)C(=O)Nc1ccc(CN(C(=O)c2ccco2)C2CCCCC2)cc1 [Compound 13, (R)-FURAN-2-CARBOXYLIC ACID [4-(2-AMINO-PROPIONYLAMINO)-BENZYL]-CYCLOHEXYL-AMIDE] | > 50
29 | Cc1ccc(NC(=O)[C@H](CCCCN)NC(=O)Nc2cccc(Br)c2)cc1 [Compound 118, (S)-6-AMINO-2-[3-(3-BROMO-PHENYL)-UREIDO]-HEXANOIC ACID P-TOLYLAMIDE] | > 50
30 | Cc1ccc(NC(=O)C(CCCCN)NC(=O)Nc2ccc3ccccc3c2)cc1 [Compound 72, (S)-6-AMINO-2-(3-NAPHTHALEN-2-YL-UREIDO)-HEXANOIC ACID P-TOLYLAMIDE] | 10 to 50
31 | Cc1ccc(NC(=O)C(CCN)NC(=O)OCC2c3ccccc3-c3ccccc32)cc1 [Compound 400, (R)-(3-AMINO-1-P-TOLYLCARBAMOYL-PROPYL)-CARBAMIC ACID 9H-FLUOREN-9-YLMETHYL ESTER] | > 50
32 | N[C@@H](Cc1c[nH]c2ccccc12)C(=O)NCCCC[C@H](NC(=O)OCC1c2ccccc2-c2ccccc21)C(=O)Nc1ccc(CN(C(=O)c2ccco2)C2CCCCC2)cc1 [Compound 35, (S)-[5-[2-(S)-AMINO-3-(1H-INDOL-3-YL)-PROPIONYLAMINO]-1-(4-{[CYCLOHEXYL-(FURAN-2-CARBONYL)-AMINO]-METHYL}-PHENYLCARBAMOYL)-PENTYL]-CARBAMIC ACID 9H-FLUOREN-9-YLMETHYL ESTER] | < 10
33 | NCCC[C@@H](NC(=O)Nc1ccc(-c2ccccc2)cc1)C(=O)Nc1ccc(C2CCCCC2)cc1 [Compound 201, (R)-5-AMINO-2-(3-BIPHENYL-4-YL-UREIDO)-PENTANOIC ACID (4-CYCLOHEXYL-PHENYL)-AMIDE] | < 10
34 | Cc1ccc(NC(=O)[C@H](CCCCN)NC(=O)CNC2Cc3ccccc3C2)cc1 [Compound 336, (S)-6-AMINO-2-[2-(INDAN-2-YLAMINO)-ACETYLAMINO]-HEXANOIC ACID P-TOLYLAMIDE] | > 50
35 | Cc1ccc(NC(=O)C(Cc2cnc[nH]2)NC(=O)OCC2c3ccccc3-c3ccccc32)cc1 [Compound 384, (R)-[2-(3H-IMIDAZOL-4-YL)-1-P-TOLYLCARBAMOYL-ETHYL]-CARBAMIC ACID 9H-FLUOREN-9-YLMETHYL ESTER] | > 50
36 | Cc1ccc(NC(=O)[C@H](CCCCN)NC(=O)NCc2ccc(Cl)c(Cl)c2)cc1 [Compound 140, (S)-6-AMINO-2-[3-(3,4-DICHLORO-BENZYL)-UREIDO]-HEXANOIC ACID P-TOLYLAMIDE] | 10 to 50
37 | Cc1ccc(NC(=O)C(NC(=O)OCC2c3ccccc3-c3ccccc32)C(C)O)cc1 [Compound 376, (2+/−,3S)-(2-HYDROXY-1-P-TOLYLCARBAMOYL-PROPYL)-CARBAMIC ACID 9H-FLUOREN-9-YLMETHYL ESTER] | > 50
38 | Cc1ccc(NC(=O)C2CN(C(=O)CN)CCN2C(=O)Nc2ccc(OCc3ccccc3)cc2)cc1 (racemic) [Compound 308, (±)-4-(2-AMINO-ACETYL)-PIPERAZINE-1,2-DICARBOXYLIC ACID 1-[(4-BENZYLOXY-PHENYL)-AMIDE]2-P-TOLYLAMIDE] | > 50
